Experimental data taken from patent US5173509A (The United States of America as represented by the …, priority 1990, dated 1992).
Entries after “also recorded” stand apart in the source; their conditions may differ.

Tests used:
calvaria = assay: Bone resorption assay (calcium released into media by mouse calvaria); format: cell-based, mice (In:GP(s)), three to six day old; details: for calcium in the media: three days
Source text: Glutamine was obtained from Biofluids (Catalog No. 300). […] Heparin was obtained from Organon (1000 units/cc). […] Above factors were stored at -20 degrees centigrade.
Three to six day old mice (In:GP(s)) were obtained from the small animal section of the Veterinarian Resources Branch of the National Institutes of Health. Calvaria were harvested and washed in 500 cc of Hank's Balanced Salt solution without calcium or magnesium (Catalog No. 320, Biofluids) with a stirring bar for one to one and a half hours. The calvaria were placed in 2cc of study media in 16 × 125 mm STYRENE tissue culture tubes (Catalog No. R605, Elkay Products, Inc.). Study media was made by mixing equal volumes of Media A and Media B and then adding the appropriate growth factors. […] The calcium in the media was determined after three days with an ABBOTT Bichromatic Analyzer 100.

[1] = Plasma half life / plasma level; format: in vivo, human; details: after attainment of an effective plasma level
Source text: The term "plasma" as used herein refers to whole blood plasma having cell bodies spun out by centrifugation, or similar method. […] Chromatog., Vol. 8, pp. 1685-1696 (1985), hereby incorporated by reference.

[2] = test system: patient having symptomatic hypercalcemia; details: cited from earlier work
[3] = cited from earlier work
[4] = when used at the levels herein taught; cited from earlier work
[5] = test system: PDGF cell surface receptors; details: cited from earlier work
[6] = test system: TGF-B cell surface receptors; details: cited from earlier work
[7] = test system: EGF cell surface receptors; details: cited from earlier work

Cc1ccc(C(=O)Nc2ccc(S(=O)(=O)O)c3cc(S(=O)(=O)O)cc(S(=O)(=O)O)c23)cc1NC(=O)c1cccc(NC(=O)Nc2cccc(C(=O)Nc3cc(C(=O)Nc4ccc(S(=O)(=O)O)c5cc(S(=O)(=O)O)cc(S(=O)(=O)O)c45)ccc3C)c2)c1 [suramin, 8,8'-[carbonylbis[imino-3,1-phenylenecarbonylimino(4-methyl-3,1-phenylene)carbonylimino]]bis-1,3,5-naphthalenetrisulfonic acid]
calcium in the media (calvaria; Example 1, FIG. 1A, calvaria plus suramin 200 mcg/ml, mean +/- SEM, n=6, media with calvaria 9.88 +/- 1.49, P=0.0002): 7.05 ± 0.32 mg/dL | calcium in the media (calvaria; Example 2, FIG. 1B, calvaria plus PTH (200 ng/ml) plus suramin 200 mcg/ml, n=6, vs. calvaria plus PTH P=0.0045): 8.33 ± 0.57 mg/dL | calcium in the media (calvaria; Example 3, FIG. 1C, calvaria plus PTH-rp (200 ng/ml) plus suramin 200 mcg/ml, n=10, vs. calvaria plus PTH-rp P=0.0001): 7.26 ± 0.18 mg/dL | inhibition of bone resorption (conclusion in words) (calvaria; based on Examples 1-3): possesses properties which allow it to inhibit bone resorption | time for which effective plasma levels are maintained without readministering [1]: 6-8 weeks | duration of normocalcemia after suramin treatment ([2]; one patient, cancer metastatic to bone): remained normocalcemic for three months; also recorded: normalized for three months | normalization of hypercalcemia ([2]; suramin 350 mg/m^2 /d continuous infusion about two weeks, calcium levels before 14 to 15 mg/dL): became normocalcemic within about two weeks | plasma suramin level ([3]; 350 mg/m^2 /d continuous infusion for about two weeks, 20160 min): 250 to 300 µg/mL | half life in plasma (in words) ([3]; human plasma): long plasma half life | toxicity (in words) [4]: relatively low toxicity | blocking of PDGF to cell surface receptors [5]: has been shown to block | blocking of TGF-B to cell surface receptors [6]: has been shown to block | blocking of EGF to cell surface receptors [7]: has been shown to block

Parathyroid Hormone - related protein (PTH-rp): Human PTH-related protein (PTH-RP) (1-34) (Catalog No. 6151; Peninsular Laboratories Incorporated)
calcium in the media (calvaria; Example 3, FIG. 1C, calvaria plus PTH-rp 200 ng/ml, without suramin, n=10, media with calvaria 9.1 +/- 0.46, P=0.0015): 11.3 ± 0.34 mg/dL

calcitonin
response of hypercalcemia to calcitonin ([2]; same patient, before suramin): becoming refractory to treatment with calcitonin
